Measured values taken from patent US20050208496A1, “Methods of testing for bronchial asthma or chronic obstructive pulmonary disease” (Genox Research, Inc., priority 2002, published 2005).

Tested on: respiratory epithelial cells

Substance: IL-13: human IL-13 (Peprotech, Inc.) added to the medium at 50 ng/mL to stimulate respiratory epithelial cells
- DD96 (31610_at) expression, fold change upon IL-13 stimulation (lot 1, Day 3, AI method): 6.3 fold
- DKFZP564O0823 (41402_at) expression, fold change upon IL-13 stimulation (lot 1, Day 3, AI method): 5 fold
- DKFZP566J091 (57197_at) expression fold change (lot 1, Day 3, AI method): 9.4 fold
- DKFZp564N1116 (37784_at) expression, fold change upon IL-13 stimulation (lot 1, Day 3, AI method): 6.4 fold
- DNAJA1 (276_at) expression fold change upon IL-13 stimulation (lot 1, Day 3, AI method): 2 fold
- DPYD (38220_at) expression fold change upon IL-13 stimulation (lot 1, Day 3, AI method): 2.7 fold
- EMILIN-2 (51628_at) expression fold change (lot 1, Day 3, AI method): 2.1 fold
- FABP4 (38430_at) expression, fold change upon IL-13 stimulation (lot 1, Day 3, AI method): 3.8 fold
- FBP1 (36495_at) expression fold change upon IL-13 stimulation (lot 1, Day 3, AI method): 3.2 fold
- FETUB (32620_at) expression fold change (lot 1, Day 3, AI method): 3.7 fold
- FETUB (33101_g_at) expression fold change (lot 1, Day 3, AI method): 2.2 fold
- FLJ10261 (43366_at) expression fold change (lot 1, Day 3, AI method): 7.9 fold
- FLJ22693 (53777_at) expression fold change (lot 1, Day 3, AI method): 2.8 fold
- FUT10 (908_at) expression fold change upon IL-13 stimulation (lot 1, Day 3, AI method): 5.8 fold
- G1P3 (1358_s_at) expression, fold change upon IL-13 stimulation (lot 1, Day 3, AI method): 7.1 fold
- GADD45G (39154_at) expression fold change upon IL-13 stimulation (lot 1, Day 3, AI method): 3.1 fold
- GBP5 (52615_at) expression fold change (lot 1, Day 3, AI method): 2.4 fold
- GS3686 (36927_at) expression, fold change upon IL-13 stimulation (lot 1, Day 3, AI method): 5.7 fold
- HAS3 (54604_at) expression fold change (lot 1, Day 3, AI method): 2.3 fold
- HDAC9 (37483_at) expression fold change upon IL-13 stimulation (lot 1, Day 3, AI method): 4.1 fold
- HLA-F (37420_i_at) expression, fold change upon IL-13 stimulation (lot 1, Day 3, AI method): 2.9 fold
- HLA-F (49203_f_at) expression fold change (lot 1, Day 3, AI method): 2.4 fold
- HS3ST1 (41556_s_at) expression fold change upon IL-13 stimulation (lot 1, Day 3, AI method): 3.4 fold
- ICAMt (32640_at) expression fold change upon IL-13 stimulation (lot 1, Day 3, AI method): 6.5 fold
- IFI27 (425_at) expression, fold change upon IL-13 stimulation (lot 1, Day 3, AI method): 3.8 fold
- IFI27 (48864_at) expression fold change (lot 1, Day 3, AI method): 2.9 fold
- IFI35 (464_s_at) expression, fold change upon IL-13 stimulation (lot 1, Day 3, AI method): 13.2 fold
- IFI44 (37641_at) expression, fold change upon IL-13 stimulation (lot 1, Day 3, AI method): 5.9 fold
- IFIT1 (915_at) expression, fold change upon IL-13 stimulation (lot 1, Day 3, AI method): 19.2 fold
- IFIT1 (32814_at) expression, fold change upon IL-13 stimulation (lot 1, Day 3, AI method): 10.6 fold
- IFIT4 (38584_at) expression, fold change upon IL-13 stimulation (lot 1, Day 3, AI method): 2.7 fold
- IFITM1 (675_at) expression, fold change upon IL-13 stimulation (lot 1, Day 3, AI method): 10.7 fold
- IL13RA2 (1016_s_at) expression fold change upon IL-13 stimulation (lot 1, Day 3, AI method): 10.2 fold
- IL19 (47855_at) expression fold change (lot 1, Day 3, AI method): 4 fold
- ILIRL1 (40322_at) expression, fold change upon IL-13 stimulation (lot 1, Day 3, AI method): 5.5 fold
- IRF7 (36412_s_at) expression fold change (lot 1, Day 3, AI method): 4.9 fold
- ISG15 (1107_s_at) expression, fold change upon IL-13 stimulation (lot 1, Day 3, AI method): 13.1 fold
- ISG15 (38432_at) expression, fold change upon IL-13 stimulation (lot 1, Day 3, AI method): 23.7 fold
- ISG20 (33304_at) expression, fold change upon IL-13 stimulation (lot 1, Day 3, AI method): 4.8 fold
- KIAA0537 (33787_at) expression, fold change upon IL-13 stimulation (lot 1, Day 3, AI method): 7.5 fold
- KIAA1268 (57050_at) expression fold change (lot 1, Day 3, AI method): 3.2 fold
- KIAAI268 (59516_at) expression fold change (lot 1, Day 3, AI method): 4.1 fold
- LAMP3 (37168_at) expression, fold change upon IL-13 stimulation (lot 1, Day 3, AI method): 6.3 fold
- LOC57118 (51085_at) expression fold change (lot 1, Day 3, AI method): 2.4 fold
- LOC64116 (40456_at) expression, fold change upon IL-13 stimulation (lot 1, Day 3, AI method): 2.2 fold
- MDA5 (51920_at) expression fold change (lot 1, Day 3, AI method): 6.6 fold
- MFHAS1 (50388_at) expression fold change (lot 1, Day 3, AI method): 2.3 fold
- MICB (35937_at) expression, fold change upon IL-13 stimulation (lot 1, Day 3, AI method): 3.3 fold
- MKP-L (38272_at) expression, fold change upon IL-13 stimulation (lot 1, Day 3, AI method): 2 fold
- MMP7 (668_s_at) expression, fold change upon IL-13 stimulation (lot 1, Day 3, AI method): 2.6 fold
- MX2 (879_at) expression fold change (lot 1, Day 3, AI method): 8.7 fold
- MXI (37014_at) expression fold change (lot 1, Day 3, AI method): 12.3 fold
- NCF2 (41038_at) expression fold change (lot 1, Day 3, AI method): 2.9 fold
- NK4 (39119_s_at) expression fold change upon IL-13 stimulation (lot 1, Day 3, AI method): 4 fold
- NOS2A (1948_f_at) expression fold change upon IL-13 stimulation (lot 1, Day 3, AI method): 5.3 fold
- NOS2A (48918_at) expression fold change (lot 1, Day 3, AI method): 4.3 fold
- OAF (39695_at) expression, fold change upon IL-13 stimulation (lot 1, Day 3, AI method): 3.4 fold
- OAS1 (38388_at) expression fold change upon IL-13 stimulation (lot 1, Day 3, AI method): 6.2 fold
- OAS1 (38389_at) expression fold change upon IL-13 stimulation (lot 1, Day 3, AI method): 4.5 fold
- OAS2 (39263_at) expression fold change upon IL-13 stimulation (lot 1, Day 3, AI method): 5 fold
- OSF-2 (1451_s_at) expression fold change upon IL-13 stimulation (lot 1, Day 3, AI method): 10.5 fold
- PHKB (46459_at) expression fold change (lot 1, Day 3, AI method): 2 fold
- PKD2 (38120_at) expression, fold change upon IL-13 stimulation (lot 1, Day 3, AI method): 2.8 fold
- PLOD2 (34795_at) expression fold change upon IL-13 stimulation (lot 1, Day 3, AI method): 2.3 fold
- PLS1 (39951_at) expression fold change (lot 1, Day 3, AI method): 2.5 fold
- PLSCR1 (32775_r_at) expression fold change upon IL-13 stimulation (lot 1, Day 3, AI method): 2.9 fold
- PSMB9 (38287_at) expression fold change upon IL-13 stimulation (lot 1, Day 3, AI method): 3.2 fold
- RIG-1 (59215_at) expression fold change (lot 1, Day 3, AI method): 7.2 fold
- SAMHD1 (34714_at) expression, fold change upon IL-13 stimulation (lot 1, Day 3, AI method): 3.4 fold
- SCYB10 (431_at) expression fold change upon IL-13 stimulation (lot 1, Day 3, AI method): 5.2 fold
- SCYB11 (35061_at) expression fold change upon IL-13 stimulation (lot 1, Day 3, AI method): 8.9 fold
- SECTM1 (41045_at) expression, fold change upon IL-13 stimulation (lot 1, Day 3, AI method): 6.5 fold
- SERPINB2 (37185_at) expression fold change (lot 1, Day 3, AI method): 2.1 fold
- SERPINB4 (1549_s_at) expression fold change (lot 1, Day 3, AI method): 4.2 fold
- SERPINB6 (34789_at) expression fold change (lot 1, Day 3, AI method): 2.2 fold
- SIAT1 (41352_at) expression fold change upon IL-13 stimulation (lot 1, Day 3, AI method): 4.7 fold
- SLC26A4, pendrin (36376_at) expression fold change (lot 1, Day 3, AI method): 18.8 fold
- SSI-1 (41592_at) expression, fold change upon IL-13 stimulation (lot 1, Day 3, AI method): 5.6 fold
- STAT1 (32860_g_at) expression fold change (lot 1, Day 3, AI method): 2.8 fold
- STAT1 (33338_at) expression fold change (lot 1, Day 3, AI method): 9.7 fold
- STAT1 (33339_g_at) expression fold change (lot 1, Day 3, AI method): 3.5 fold
- TGM2 (38404_at) expression fold change upon IL-13 stimulation (lot 1, Day 3, AI method): 8.5 fold
- THBS1 (115_at) expression fold change upon IL-13 stimulation (lot 1, Day 3, AI method): 10.4 fold
- TSPAN-3 (38612_at) expression, fold change upon IL-13 stimulation (lot 1, Day 3, AI method): 2.2 fold
- TXNRD1 (39425_at) expression fold change upon IL-13 stimulation (lot 1, Day 3, AI method): 2 fold
- UBE2L6 (40505_at) expression fold change upon IL-13 stimulation (lot 1, Day 3, AI method): 3.3 fold
- UFD1L (811_at) expression, fold change upon IL-13 stimulation (lot 1, Day 3, AI method): 2.3 fold
- WARS (38121_at) expression fold change upon IL-13 stimulation (lot 1, Day 3, AI method): 3.5 fold
- cig5 (38549_at) expression, fold change upon IL-13 stimulation (lot 1, Day 3, AI method): 10.1 fold
- diubiquitin (39959_at) expression, fold change upon IL-13 stimulation (lot 1, Day 3, AI method): 21.3 fold
- AA149682 (51925_at) expression fold change (lot 1, Day 3, IMM method): 2.4 fold
- AA541787 (52622_at) expression fold change (lot 1, Day 3, IMM method): 2.6 fold
- ADAM28 (35479_at) expression, fold change upon IL-13 stimulation (lot 1, Day 3, IMM method): 4.8 fold
- AI565105 (54886_at) expression fold change (lot 1, Day 3, IMM method): 2.2 fold
- AI659927 (54033_at) expression fold change (lot 1, Day 3, IMM method): 8.3 fold
- AI989346 (52327_s_at) expression fold change (lot 1, Day 3, IMM method): 2.3 fold
- ALOX15 (34636_at) expression, fold change upon IL-13 stimulation (lot 1, Day 3, IMM method): 69.2 fold
- ARL7 (57151_at) expression fold change (lot 1, Day 3, IMM method): 3.2 fold
- AW019985 (48826_s_at) expression fold change (lot 1, Day 3, IMM method): 6 fold
- BAL (52167_at) expression fold change (lot 1, Day 3, IMM method): 3.6 fold
- BRCA1 (626_s_at) expression fold change (lot 1, Day 3, IMM method): 7.6 fold
- BST2 (39061_at) expression, fold change upon IL-13 stimulation (lot 1, Day 3, IMM method): 8.3 fold
- C21orf11 (58957_at) expression fold change (lot 1, Day 3, IMM method): 6.2 fold
- CDH6 (1620_at) expression fold change upon IL-13 stimulation (lot 1, Day 3, IMM method): 4.2 fold
- CDH6 (57421_at) expression fold change (lot 1, Day 3, IMM method): 4.7 fold
- CDH26 (46916_at) expression fold change (lot 1, Day 3, IMM method): 16 fold
